# Measured values taken from patent US20090088380A1, “GHRH ANALOGS AND THERAPEUTIC USES THEREOF” (priority 2007, published 2009).
# Non-standard residues stand in square brackets, D forms with d. Residues, ends and D or L forms follow the SMILES beside them.
# Legend:
# [1] = tested on: malnourished subjects with CKD; assay: Phase II CKD: vital signs; format: in vivo, human; conditions: for Diastolic blood pressure: mean (SD) / Heart rate: mean (SD) / Systolic blood pressure: mean (SD): Safety Analysis Set
# Text: Mean systolic blood pressure was lower at Day 28 compared with baseline in the GHRH(1-29)NH2 synthetic analog group but higher compared with baseline in the placebo group (Table 37). […] Similarly, mean diastolic blood pressure was lower at Day 28 compared with baseline in the GHRH(1-29)NH2 synthetic analog group but this was not part of a trend.
# [2] = tested on: GH and IGF-1 secretion; assay: Phase I/II study in healthy male volunteers: GH and IGF-1 secretion; format: in vivo, human
# Text: The primary objectives of the Phase I/II study were to assess safety and tolerability of escalating doses of the GHRH(1-29)NH2 synthetic analog (Maximal Tolerated Dose—MTD) and to determine the minimal effective dose (MED) of the GHRH(1-29)NH2 synthetic analog in terms of stimulation of GH and IGF-1 secretion. The secondary objectives were to establish the lowest dose of the GHRH(1-29)NH2 synthetic analog that induces maximal response with a single subcutaneous administration into healthy male volunteers, to determine the MED for subsequent studies and to establish the most representative blood sampling time for evaluation of GH secretion profile after GHRH(1-29)NH2 synthetic analog administration to be used in subsequent studies.
# It was a crossover single-blinded Phase I/II trial of escalating doses of the GHRH(1-29)NH2 synthetic analog controlled versus placebo. Ten healthy middle-aged male volunteers, between 50 and 55 years old, were recruited. All 10 subjects received a single subcutaneous dose of the GHRH(1-29)NH2 synthetic analog (reconstituted in water for injection), per day for 5 days, in a dose range from 5 to 25 μg/kg of body weight (lower than the maximal dose used to treat GH deficiency in children, which was 30 μg/kg of body weight).
# Each volunteer was hospitalized for 6 days. All volunteers were randomized into 5 groups (2 volunteers per group). During the first 24 hours of hospitalization (Day 0), scheduled blood samples were obtained for GH and IGF-1 assessment (GH and IGF-1 baseline sampling) and then from Day 1 until Day 5, following each GHRH(1-29)NH2 synthetic analog or placebo dose administration, according to the established randomization plan.
# Once the volunteers were considered eligible, they were hospitalized for a period of 5 consecutive days. On Day 0 of admission successive samples of blood were taken to perform the basal secretion profile of GH during 24 hours. During 5-day hospitalization period, after the initial blood sampling to determine fasting glucose level, the appropriate dose of the GHRH(1-29)NH2 synthetic analog or placebo was administered and multiple samplings were performed to assess the profile of GH, postprandial glucose level and electrocardiogram after 60 minutes of the application of the GHRH(1-29)NH2 synthetic analog/placebo. Eight hours after drug administration, samples were obtained to determine IGF-1 level, thyroid hormones and routine analysis. After 30 days of admission, all the volunteers returned for new clinical evaluation to record any adverse events that could have occurred from the last day of hospitalization period and to take a blood sample for later determination of anti-GHRH(1-29)NH2 synthetic analog antibodies.
# Serum human GH was measured by using a commercial DSL-1900 ACTIVE® Human Growth Hormone Coated-Tube Immunoradiometric Assay Kit purchased from Diagnostic Systems Laboratories, Inc., Texas, USA. Serum IGF-1 was measured using DSL-9400 ACTIVE® Free Insulin-Like Growth Factor-I Coated-Tube IRMA Kit purchased from Diagnostic Systems Laboratories.
# To determine MED, GH secretion curves were drawn and the area under the curve (AUC) calculated for each study drug dose.
smiles,measurement,setting,value
"CC[C@H](C)[C@H](NC(=O)[C@H](C)NC(=O)[C@H](CC(=O)O)NC(=O)[C@@H](C)NC(=O)[C@@H](N)Cc1ccc(O)cc1)C(=O)N[C@@H](Cc1ccccc1)C(=O)N[C@H](C(=O)N[C@@H](CC(N)=O)C(=O)N[C@@H](CO)C(=O)N[C@H](Cc1ccc(O)cc1)C(=O)N[C@@H](CCCNC(=N)N)C(=O)N[C@@H](CCCCN)C(=O)N[C@H](C(=O)N[C@@H](CC(C)C)C(=O)N[C@H](C)C(=O)N[C@@H](CCC(N)=O)C(=O)N[C@@H](CC(C)C)C(=O)N[C@@H](CO)C(=O)N[C@@H](C)C(=O)N[C@@H](CCCNC(=N)N)C(=O)N[C@@H](CCCCN)C(=O)N[C@@H](CCCCN)C(=O)N[C@@H](CC(C)C)C(=O)N[C@@H](CCC(N)=O)C(=O)N[C@@H](CC(=O)O)C(=O)N[C@H](C(=O)N[C@@H](CCSC)C(=O)N[C@@H](CO)C(=O)N[C@@H](CCCNC(=N)N)C(N)=O)[C@@H](C)CC)C(C)C)[C@@H](C)O [GHRH analog #5, [D-Ala^2, D-Tyr^10, D-Ala^15, Lys^22] hGHRH(1-29)-NH2] (H-Y[dA]DAIFTNS[dY]RKVL[dA]QLSARKKLQDIMSR-NH2)",Mean systolic blood pressure,[1]; Day 7,136.4 mmHg
same,Mean systolic blood pressure,[1]; Day 14,139.9 mmHg
same,Mean systolic blood pressure,[1]; Day 21,143.1 mmHg
same,Diastolic blood pressure: mean (SD),[1]; Baseline,82.7 (10.9) mmHg
same,Heart rate: mean (SD),[1]; Baseline,77.7 (11.1) bpm
same,Systolic blood pressure: mean (SD),[1]; Baseline,144.8 (16.0) mmHg
same,Diastolic blood pressure: mean (SD),[1]; Day 28,76.7 (8.1) mmHg
same,Heart rate: mean (SD),[1]; Day 28,76.4 (9.8) bpm
same,Systolic blood pressure: mean (SD),[1]; Day 28,128.3 (16.5) mmHg
same,Mean systolic blood pressure,[1]; screening,142.0 mmHg
same,AUC of GH level in the first 12 hours,[2]; 5 μg/kg body weight,61.76
same,AUC of GH level in the first 12 hours,[2]; 10 μg/kg body weight,71.25
same,AUC of GH level in the first 12 hours,[2]; 15 μg/kg body weight,135.17
same,AUC of GH level in the first 12 hours,[2]; 25 μg/kg body weight,149.48
same,IGF-1 mean level,[2]; Day 1 of treatment,156 ng/mL
same,IGF-1 mean level,[2]; Day 5 of treatment,231 ng/mL
same,GH levels compared to placebo,[2]; any dose,unequivocally higher at any dose
